pIC50: −log10 of the molar value.
Assays:
[1] = target: Protease (Human immunodeficiency virus 1, UniProt Q9YQ12); assay: Inhibition of HIV1 protease
[2] = target: T1, Renin (Homo sapiens, UniProt P00797); assay: Inhibition of renin by fluorimetric assay
T1 sequence (P00797 whole entry): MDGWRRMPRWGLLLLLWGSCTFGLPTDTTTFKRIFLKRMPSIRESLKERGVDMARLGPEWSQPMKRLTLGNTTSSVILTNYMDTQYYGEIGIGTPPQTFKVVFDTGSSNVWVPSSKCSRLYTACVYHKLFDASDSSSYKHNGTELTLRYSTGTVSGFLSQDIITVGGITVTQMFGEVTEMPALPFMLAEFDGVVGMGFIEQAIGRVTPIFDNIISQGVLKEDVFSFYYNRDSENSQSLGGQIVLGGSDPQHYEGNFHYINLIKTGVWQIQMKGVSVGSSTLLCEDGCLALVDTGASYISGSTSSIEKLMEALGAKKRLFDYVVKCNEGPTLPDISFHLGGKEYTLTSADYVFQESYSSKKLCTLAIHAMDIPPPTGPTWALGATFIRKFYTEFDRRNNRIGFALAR

[3] = Inhibition of trypsin by fluorimetric assay
[4] = Inhibition of HCV NS3/4A protease by fluorimetric assay; set-up: species or system Hepacivirus hominis

Sequence of Protease (Q9YQ12 whole entry): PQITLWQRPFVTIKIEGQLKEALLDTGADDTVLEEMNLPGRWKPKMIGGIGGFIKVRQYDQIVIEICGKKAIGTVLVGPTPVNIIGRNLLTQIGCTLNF

| SMILES | pIC50 [1] | pIC50 [2] | pIC50 [3] | pIC50 [4] |
| --- | --- | --- | --- | --- |
| CC1(C)C(=O)CC[C@]2(C)[C@H]3C(=O)C=C4[C@H]5C[C@@](C)(C(=O)O)CC[C@]5(C)CC[C@@]4(C)[C@]3(C)CC[C@@H]12 | 4.63 |  |  |  |
| CC1(C)CC[C@]2(C(=O)O)CC[C@]3(C)C(=CC[C@@H]4[C@@]5(C)CCC(=O)C(C)(C)[C@@H]5CC[C@]43C)[C@H]2C1 | 4.56 |  |  |  |
| CC1(C)CC[C@]2(CO)CC[C@]3(C)C(=CC[C@@H]4[C@@](C)(CC(=O)O)[C@H](C(C)(C)C(=O)O)CC[C@]43C)[C@H]2C1 | 4.52 |  |  |  |
| CC(C)[C@@H](NC(=O)[C@]12CCC(C)(C)C[C@@H]1C1=CC[C@@H]3[C@@]4(C)CC[C@H](O)C(C)(C)[C@@H]4CC[C@@]3(C)[C@]1(C)CC2)C(=O)O | 4.33 |  |  |  |
| C=C(C)[C@@H]1CC[C@]2(C)CC[C@]3(C)[C@@H](CC[C@@H]4[C@@]5(C)CCC(=O)C(C)(C)[C@@H]5CC[C@]43C)[C@H]12 | < 3.63 |  |  |  |
| CC(C)[C@@H](NC(=O)[C@]12CCC(C)(C)C[C@@H]1C1=CC[C@@H]3[C@@](C)(CC(=O)O)[C@H](C(C)(C)C(=O)O)CC[C@@]3(C)[C@]1(C)CC2)C(=O)O | 4.06 | < 2.78 | < 2.78 | < 3.78 |
| COC(=O)[C@H](NC(=O)[C@]12CCC(C)(C)C[C@@H]1C1=CC[C@@H]3[C@@]4(C)CCC(=O)C(C)(C)[C@@H]4CC[C@@]3(C)[C@]1(C)CC2)C(C)C | 4.38 |  |  |  |
| COC(=O)[C@@H](NC(=O)[C@]12CCC(C)(C)C[C@@H]1C1=CC[C@@H]3[C@@]4(C)CCC(=O)C(C)(C)[C@@H]4CC[C@@]3(C)[C@]1(C)CC2)C(C)C | 4.43 |  |  |  |
| CC(C)[C@@H](NC(=O)[C@]12CCC(C)(C)C[C@@H]1C1=CC[C@@H]3[C@@]4(C)CCC(=O)C(C)(C)[C@@H]4CC[C@@]3(C)[C@]1(C)CC2)C(=O)O | 4.34 |  |  |  |
| COC(=O)[C@H](NC(=O)[C@]12CCC(C)(C)C[C@@H]1C1=CC[C@@H]3[C@@]4(C)CC[C@H](O)C(C)(C)[C@@H]4CC[C@@]3(C)[C@]1(C)CC2)C(C)C | 4.49 |  |  |  |
| CC(C)[C@@H](NC(=O)[C@]12CCC(C)(C)C[C@@H]1[C@H]1CC[C@@H]3[C@@]4(C)C=C(O)C(=O)C(C)(C)[C@@H]4CC[C@@]3(C)[C@]1(C)CC2)C(=O)O | 4.30 |  |  |  |
| CC(C)[C@H](NC(=O)[C@]12CCC(C)(C)C[C@@H]1[C@H]1CC[C@@H]3[C@@]4(C)C=C(O)C(=O)C(C)(C)[C@@H]4CC[C@@]3(C)[C@]1(C)CC2)C(=O)O | 4.39 |  |  |  |
| C=C(C)[C@@H]1CC[C@]2(C)CC[C@]3(C)[C@@H](CC[C@@H]4[C@@]5(C)C=C(O)C(=O)C(C)(C)[C@@H]5CC[C@]43C)[C@H]12 | 4.61 |  |  |  |
| CC1(C)CC[C@]2(C(=O)O)CC[C@]3(C)C(=CC[C@@H]4[C@@]5(C)CC(=O)C(C)(C)[C@@H]5CC[C@]43C)[C@H]2C1 | 4.54 |  |  |  |
| C=C(C)[C@@H]1CC[C@]2(C=O)CC[C@]3(C)[C@@H](CC[C@@H]4[C@@]5(C)CCC(=O)C(C)(C)[C@@H]5CC[C@]43C)[C@H]12 | 4.50 |  |  |  |
| CC(=O)O[C@H]1CC[C@]2(C)[C@H]3CC=C4[C@@H]5CC(C)(C)CC[C@]5(C(=O)O)CC[C@@]4(C)[C@]3(C)CC[C@H]2C1(C)C [ACETYL OLEANOLIC ACID] | < 3.70 |  |  |  |
| C[C@H]1[C@H](C)CC[C@]2(C(=O)O)CC[C@]3(C)C(=CC[C@@H]4[C@@]5(C)CCC(=O)C(C)(C)[C@@H]5CC[C@]43C)[C@H]12 [URSONIC ACID] | 4.43 |  |  |  |

The next lines start with the values.

| pIC50 [1] | pIC50 [2] | pIC50 [3] | pIC50 [4] | SMILES |
| --- | --- | --- | --- | --- |
| 4.60 |  |  |  | C[C@@H]1[C@H]2[C@H]3CC[C@@H]4[C@@]5(C)C=C(O)C(=O)C(C)(C)[C@@H]5CC[C@@]4(C)[C@]3(C)CC[C@@]2(C(=O)O)CC[C@H]1C |
| 4.96 | < 2.69 | < 2.69 | < 3.69 | C=C(C)[C@@H]1CC[C@@]2(C)[C@@H]1[C@@H]1CC[C@@H]3[C@@](C)(CC(=O)O)[C@H](C(C)(C)C(=O)O)CC[C@@]3(C)[C@]1(C)C[C@@H]2O |
| 4.80 | < 2.70 | 3.07 | < 3.70 | C=C(C)[C@@H]1CC[C@]2(C(=O)O)CC[C@]3(C)[C@@H](CC[C@@H]4[C@@](C)(CC(=O)O)[C@H](C(C)(C)C(=O)O)CC[C@]43C)[C@H]12 |
| 4.72 |  |  |  | CC1(C)CC[C@]2(C(=O)O)CC[C@]3(C)[C@H](CC[C@@H]4[C@@]5(C)C=C(O)C(=O)C(C)(C)[C@@H]5CC[C@]43C)[C@H]2C1 |
| 5.41 | < 2.70 | < 2.70 | < 3.70 | CC1(C)CC[C@]2(C(=O)O)CC[C@]3(C)C(=CC[C@@H]4[C@@](C)(CC(=O)O)[C@H](C(C)(C)C(=O)O)CC[C@]43C)[C@H]2C1 |
| 4.80 |  |  |  | CC1(C)C(=O)C(O)=C[C@]2(C)[C@H]3C(=O)C[C@@H]4[C@H]5C[C@@](C)(C(=O)O)CC[C@]5(C)CC[C@@]4(C)[C@]3(C)CC[C@@H]12 |
| 4.73 |  |  |  | C=C(C)[C@@H]1CC[C@]2(C(=O)O)CC[C@]3(C)[C@@H](CC[C@@H]4[C@@]5(C)C=C(O)C(=O)C(C)(C)[C@@H]5CC[C@]43C)[C@H]12 |
| 5.24 | < 2.71 | < 2.71 | < 3.71 | CC(C)(C(=O)O)[C@@H]1CC[C@]2(C)[C@H](C(=O)C=C3[C@H]4C[C@@](C)(C(=O)O)CC[C@]4(C)CC[C@]32C)[C@@]1(C)CC(=O)O |
| 4.75 | < 2.70 | < 2.70 | < 3.70 | C[C@H]1[C@H](C)CC[C@]2(C(=O)O)CC[C@]3(C)C(=CC[C@@H]4[C@@](C)(CC(=O)O)[C@H](C(C)(C)C(=O)O)CC[C@]43C)[C@H]12 |
| 4.84 |  |  |  | CC(C)[C@H](NC(=O)[C@]12CCC(C)(C)C[C@@H]1C1=CC[C@@H]3[C@@]4(C)CCC(=O)C(C)(C)[C@@H]4CC[C@@]3(C)[C@]1(C)CC2)C(=O)O |
| 4.61 |  |  |  | COC(=O)[C@@H](NC(=O)[C@]12CCC(C)(C)C[C@@H]1C1=CC[C@@H]3[C@@]4(C)CC[C@H](O)C(C)(C)[C@@H]4CC[C@@]3(C)[C@]1(C)CC2)C(C)C |
| 4.67 |  |  |  | COC(=O)[C@@H](NC(=O)[C@]12CCC(C)(C)C[C@@H]1C1=CC[C@@H]3[C@@]4(C)CC[C@H](OC(C)=O)C(C)(C)[C@@H]4CC[C@@]3(C)[C@]1(C)CC2)C(C)C |
| 4.97 |  |  |  | CC(C)[C@H](NC(=O)[C@]12CCC(C)(C)C[C@@H]1C1=CC[C@@H]3[C@@]4(C)CC[C@H](O)C(C)(C)[C@@H]4CC[C@@]3(C)[C@]1(C)CC2)C(=O)O |
| 4.60 | < 2.67 | < 2.67 | 4.10 | C=C(C)[C@@H]1CC[C@]2(C)CC[C@]3(C)[C@@H](CC[C@@H]4[C@@](C)(CC(=O)O)[C@H](C(C)(C)C(=O)O)CC[C@]43C)[C@H]12 |

Reference: ChEMBL document CHEMBL1154068, “Synthesis and evaluation of A-seco type triterpenoids for anti-HIV-1protease activity” (Eur J Med Chem, 2009)
